Source: ChEMBL document CHEMBL5696443 (Clin Cancer Res, 2016)
Activity calls are given as the source filed them. The calls are words filed in the database; no cut-off is given here.

Tests used:
[1] = target: Protein kinase C zeta type (Homo sapiens) (UniProt Q05513); assay: Inhibition of human PRKCZ at 1 uM using ERMRPRKRQGSVRRRV as substrate in presence of [gamma33P]-ATP by HotSpot assay relative to control
[2] = target: Protein kinase C delta type (Homo sapiens) (UniProt Q05655); assay: Inhibition of human PRKCD at 1 uM using ERMRPRKRQGSVRRRV as substrate in presence of [gamma33P]-ATP by HotSpot assay relative to control
[3] = tested on: Serine/threonine-protein kinase A-Raf (Homo sapiens), P10398 [Y301D,Y302D]; assay: Inhibition of human ARAF Y301D/Y302D double mutant at 1 uM using MEK1 as substrate in presence of [gamma33P]-ATP by HotSpot assay relative to control
Insulin receptor = Insulin receptor (Homo sapiens, UniProt P06213)
Description: Inhibition of INSR phosphorylation in insulin-stimulated human H4-II-E cells preincubated with compound for 30 mins followed by insulin stimulation and measured after 10 mins by immunoblot analysis

[4] = tested on: EML4-ALK (Homo sapiens), Q9UM73+Q9HC35 [F1174V]; settings: BaF3, dose 200.0 nmol/L, time 3-5 weeks
[5] = target: cGMP-dependent protein kinase 1 (Homo sapiens, UniProt Q13976); assay: Inhibition of human PRKG1 using LRRASLG as substrate in presence of [gamma33P]-ATP by HotSpot assay
[6] = target: Mitogen-activated protein kinase kinase kinase 20 (Homo sapiens) (UniProt Q9NYL2); assay: Inhibition of human ZAK at 1 uM using MBP as substrate in presence of [gamma33P]-ATP by HotSpot assay relative to control
Mitogen-activated protein kinase kinase kinase 20 (Homo sapiens), sequence (Q9NYL2 2-800 limits assumed): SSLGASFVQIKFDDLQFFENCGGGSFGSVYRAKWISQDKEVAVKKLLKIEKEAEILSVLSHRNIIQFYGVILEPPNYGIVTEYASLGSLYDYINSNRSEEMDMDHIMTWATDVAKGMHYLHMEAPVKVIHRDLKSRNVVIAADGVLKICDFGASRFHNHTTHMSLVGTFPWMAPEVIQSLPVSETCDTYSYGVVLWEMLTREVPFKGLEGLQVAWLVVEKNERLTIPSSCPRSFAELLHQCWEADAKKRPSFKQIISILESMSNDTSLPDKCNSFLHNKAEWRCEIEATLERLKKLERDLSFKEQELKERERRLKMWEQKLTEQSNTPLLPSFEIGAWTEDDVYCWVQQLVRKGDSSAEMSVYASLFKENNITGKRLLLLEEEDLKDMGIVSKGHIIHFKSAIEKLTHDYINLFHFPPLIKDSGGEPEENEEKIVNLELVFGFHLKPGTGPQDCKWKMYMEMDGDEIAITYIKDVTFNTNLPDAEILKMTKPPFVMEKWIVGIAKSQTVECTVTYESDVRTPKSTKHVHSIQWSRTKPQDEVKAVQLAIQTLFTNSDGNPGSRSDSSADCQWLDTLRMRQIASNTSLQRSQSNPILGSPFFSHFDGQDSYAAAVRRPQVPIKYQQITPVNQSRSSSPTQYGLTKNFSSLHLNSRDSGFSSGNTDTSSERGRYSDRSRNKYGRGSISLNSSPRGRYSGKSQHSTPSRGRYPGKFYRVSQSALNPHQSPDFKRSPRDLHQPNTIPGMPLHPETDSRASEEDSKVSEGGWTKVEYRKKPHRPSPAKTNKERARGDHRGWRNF

[7] = target: Macrophage colony-stimulating factor 1 receptor (Homo sapiens, UniProt P07333); assay: Inhibition of human FMS using poly (Glu, Tyr)4:1 as substrate in presence of [gamma33P]-ATP by HotSpot assay
[8] = target: Tyrosine-protein kinase CSK (Homo sapiens, UniProt P41240); assay: Inhibition of human CSK at 1 uM using poly (Glu, Tyr)4:1 as substrate in presence of [gamma33P]-ATP by HotSpot assay relative to control
Tyrosine-protein kinase CSK, sequence (P41240 2-450 limits assumed): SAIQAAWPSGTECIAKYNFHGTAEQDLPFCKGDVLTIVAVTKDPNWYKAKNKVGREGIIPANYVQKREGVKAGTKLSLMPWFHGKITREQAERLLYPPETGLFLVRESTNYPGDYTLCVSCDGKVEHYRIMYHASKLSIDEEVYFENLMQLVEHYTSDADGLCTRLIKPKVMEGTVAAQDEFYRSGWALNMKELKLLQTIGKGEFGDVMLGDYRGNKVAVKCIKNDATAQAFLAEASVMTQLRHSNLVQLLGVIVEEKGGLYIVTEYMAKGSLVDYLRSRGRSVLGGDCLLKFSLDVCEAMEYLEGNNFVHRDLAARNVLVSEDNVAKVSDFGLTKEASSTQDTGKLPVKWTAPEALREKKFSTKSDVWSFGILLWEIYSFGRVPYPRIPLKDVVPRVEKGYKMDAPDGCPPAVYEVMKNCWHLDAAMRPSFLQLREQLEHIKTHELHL

BaF3 [9] = assay: Antitumor activity against mouse BaF3 cells expressing native EML4-ALK implanted in mouse assessed as tumor regression at 50 mg/kg, po administered once daily and measured after 8 days relative to control; type: functional; settings: time 8 day
[10] = target: Serine/threonine-protein kinase 10 (Homo sapiens, UniProt O94804); assay: Inhibition of human STK10 using RLGRDKYKTLRQIRQ as substrate in presence of [gamma33P]-ATP by HotSpot assay
Serine/threonine-protein kinase 10, sequence (O94804 whole entry): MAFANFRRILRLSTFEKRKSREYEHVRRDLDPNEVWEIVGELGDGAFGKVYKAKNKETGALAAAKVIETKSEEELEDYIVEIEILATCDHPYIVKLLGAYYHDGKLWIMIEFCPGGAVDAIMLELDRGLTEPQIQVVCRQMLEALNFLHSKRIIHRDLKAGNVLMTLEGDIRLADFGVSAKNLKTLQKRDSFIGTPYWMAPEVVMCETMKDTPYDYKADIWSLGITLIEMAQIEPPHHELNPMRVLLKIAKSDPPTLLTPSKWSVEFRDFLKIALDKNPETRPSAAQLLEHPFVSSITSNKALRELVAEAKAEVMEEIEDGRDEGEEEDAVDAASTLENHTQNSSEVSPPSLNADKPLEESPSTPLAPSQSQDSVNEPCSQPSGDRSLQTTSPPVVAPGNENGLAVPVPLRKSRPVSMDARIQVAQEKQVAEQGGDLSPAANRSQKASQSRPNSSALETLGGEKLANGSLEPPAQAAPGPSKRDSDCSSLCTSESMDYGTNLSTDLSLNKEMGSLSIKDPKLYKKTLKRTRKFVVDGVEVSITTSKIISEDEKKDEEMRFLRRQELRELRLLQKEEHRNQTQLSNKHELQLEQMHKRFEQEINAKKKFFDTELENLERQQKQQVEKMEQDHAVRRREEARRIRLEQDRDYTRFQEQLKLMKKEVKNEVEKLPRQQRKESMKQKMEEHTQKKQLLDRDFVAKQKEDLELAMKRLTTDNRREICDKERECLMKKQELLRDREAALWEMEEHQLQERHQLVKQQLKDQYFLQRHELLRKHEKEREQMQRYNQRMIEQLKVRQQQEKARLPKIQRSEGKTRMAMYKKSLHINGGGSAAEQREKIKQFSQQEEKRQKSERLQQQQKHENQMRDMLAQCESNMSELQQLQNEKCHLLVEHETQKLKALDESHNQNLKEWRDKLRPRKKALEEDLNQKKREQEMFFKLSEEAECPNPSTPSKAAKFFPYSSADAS

[11] = target: Protein kinase C alpha type (Homo sapiens) (UniProt P17252); assay: Inhibition of human PRKCA at 1 uM using ERMRPRKRQGSVRRRV as substrate in presence of [gamma33P]-ATP by HotSpot assay relative to control
[12] = target: Inhibitor of nuclear factor kappa-B kinase subunit beta (Homo sapiens) (UniProt O14920); assay: Inhibition of human IKBKB at 1 uM using KKKKERLLDDRHDSGLDSMKDEE as substrate in presence of [gamma33P]-ATP by HotSpot assay relative to control
Inhibitor of nuclear factor kappa-B kinase subunit beta (Homo sapiens), sequence (O14920 whole entry): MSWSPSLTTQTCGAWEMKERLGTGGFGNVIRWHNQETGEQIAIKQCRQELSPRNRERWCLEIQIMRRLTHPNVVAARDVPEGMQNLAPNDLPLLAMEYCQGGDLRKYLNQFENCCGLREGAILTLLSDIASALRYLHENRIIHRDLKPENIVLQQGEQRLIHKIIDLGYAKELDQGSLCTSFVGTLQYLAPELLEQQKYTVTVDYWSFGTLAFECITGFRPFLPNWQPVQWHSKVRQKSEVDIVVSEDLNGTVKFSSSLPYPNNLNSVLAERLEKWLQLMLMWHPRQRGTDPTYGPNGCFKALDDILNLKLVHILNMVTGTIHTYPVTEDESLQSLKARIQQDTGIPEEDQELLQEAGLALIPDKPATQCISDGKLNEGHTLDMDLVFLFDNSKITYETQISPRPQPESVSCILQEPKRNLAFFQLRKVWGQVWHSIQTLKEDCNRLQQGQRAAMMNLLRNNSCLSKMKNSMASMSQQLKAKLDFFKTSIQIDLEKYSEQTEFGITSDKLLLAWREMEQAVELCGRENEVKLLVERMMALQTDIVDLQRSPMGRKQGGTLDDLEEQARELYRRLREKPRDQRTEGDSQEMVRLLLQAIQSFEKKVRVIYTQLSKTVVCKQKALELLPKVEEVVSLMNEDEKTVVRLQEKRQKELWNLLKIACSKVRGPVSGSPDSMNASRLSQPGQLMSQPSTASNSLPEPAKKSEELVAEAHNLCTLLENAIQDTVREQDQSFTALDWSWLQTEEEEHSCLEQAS

[13] = tested on: EML4-ALK (Homo sapiens), Q9UM73+Q9HC35 [G1202R]; settings: BaF3, time 3-5 weeks
[14] = target: G protein-coupled receptor kinase 6 (Homo sapiens) (UniProt P43250); assay: Inhibition of human GRK6 at 1 uM using casein as substrate in presence of [gamma33P]-ATP by HotSpot assay relative to control
[15] = target: Tyrosine-protein kinase Mer (Homo sapiens, UniProt Q12866); assay: Inhibition of human MERTK using poly (Glu, Tyr)4:1 as substrate in presence of [gamma33P]-ATP by HotSpot assay
Tyrosine-protein kinase Mer, sequence (Q12866 whole entry): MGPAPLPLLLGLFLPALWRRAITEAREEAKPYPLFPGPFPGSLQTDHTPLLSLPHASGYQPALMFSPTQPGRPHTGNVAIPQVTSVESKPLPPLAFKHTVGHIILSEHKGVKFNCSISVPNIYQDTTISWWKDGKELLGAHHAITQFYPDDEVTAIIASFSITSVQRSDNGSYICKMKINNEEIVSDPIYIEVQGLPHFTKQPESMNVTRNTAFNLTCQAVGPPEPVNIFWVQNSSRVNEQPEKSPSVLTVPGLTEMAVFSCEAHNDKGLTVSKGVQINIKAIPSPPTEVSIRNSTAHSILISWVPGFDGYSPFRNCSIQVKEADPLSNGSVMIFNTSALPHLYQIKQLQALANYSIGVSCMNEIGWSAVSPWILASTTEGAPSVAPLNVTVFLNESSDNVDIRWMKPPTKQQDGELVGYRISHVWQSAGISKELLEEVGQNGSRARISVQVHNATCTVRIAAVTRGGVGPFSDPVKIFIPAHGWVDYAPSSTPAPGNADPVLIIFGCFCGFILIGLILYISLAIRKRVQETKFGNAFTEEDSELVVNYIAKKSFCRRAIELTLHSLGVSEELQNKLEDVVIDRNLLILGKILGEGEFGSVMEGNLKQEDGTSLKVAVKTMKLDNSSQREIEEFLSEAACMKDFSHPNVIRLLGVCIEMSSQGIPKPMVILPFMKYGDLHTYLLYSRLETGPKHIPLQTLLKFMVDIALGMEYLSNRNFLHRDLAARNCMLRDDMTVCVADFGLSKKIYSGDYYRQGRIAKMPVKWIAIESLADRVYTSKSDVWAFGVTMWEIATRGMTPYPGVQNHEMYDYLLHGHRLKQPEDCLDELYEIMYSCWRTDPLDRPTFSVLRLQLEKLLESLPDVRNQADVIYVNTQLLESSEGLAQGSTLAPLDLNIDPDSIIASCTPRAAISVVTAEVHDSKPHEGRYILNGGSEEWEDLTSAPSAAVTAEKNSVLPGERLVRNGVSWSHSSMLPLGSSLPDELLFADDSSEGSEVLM

[16] = target: Tyrosine-protein kinase Lyn (Homo sapiens, UniProt P07948); assay: Inhibition of human LYN using poly (Glu, Tyr)4:1 as substrate in presence of [gamma33P]-ATP by HotSpot assay
[17] = target: Beta-adrenergic receptor kinase 1 (Homo sapiens) (UniProt P25098); assay: Inhibition of human ADRBK1 at 1 uM using casein as substrate in presence of [gamma33P]-ATP by HotSpot assay relative to control
[18] = tested on: EML4-ALK (Homo sapiens), Q9UM73+Q9HC35 [S1206Y]; settings: BaF3, dose 500.0 nmol/L, time 3-5 weeks
[19] = target: Dual specificity protein kinase CLK4 (Homo sapiens) (UniProt Q9HAZ1); assay: Inhibition of human CLK4 at 1 uM using MBP as substrate in presence of [gamma33P]-ATP by HotSpot assay relative to control
[20] = target: Tyrosine-protein kinase Fgr (Homo sapiens, UniProt P09769); assay: Inhibition of human FGR using poly (Glu, Tyr)4:1 as substrate in presence of [gamma33P]-ATP by HotSpot assay
[21] = target: Serine/threonine-protein kinase WNK3 (Homo sapiens) (UniProt Q9BYP7); assay: Inhibition of human WNK3 at 1 uM using MBP as substrate in presence of [gamma33P]-ATP by HotSpot assay relative to control
[22] = target: RAC-alpha serine/threonine-protein kinase (Homo sapiens) (UniProt P31749); assay: Inhibition of human AKT1 at 1 uM using KGSGSGRPRTSSFAEG as substrate in presence of [gamma33P]-ATP by HotSpot assay relative to control
cells [23] = settings: Homo sapiens, BaF3, 72 h
[24] = Toxicity in CB-17/SCID mouse implanted with ALK positive mouse BaF3 cells expressing EML4-ALK G1202R mutant assessed as effect on body weight at 25 to 50 mg/kg, po administered once daily and measured after 6 days; type: organism-based; settings: in vivo, 144 h, dose 25-50 mg/kg, time 6 day
Mus musculus = assay: In vivo inhibition of ALK signaling in SCID Beige mouse xenografted with ALK positive human KARPAS-299 cells assessed as reduction in phosphorylated STAT3 level at 10 to 50 mg/kg, po administered as single dose and measured at 6 to 24 hrs by immunoblot analysis; type: functional, organism-based; settings: dose 10-50 mg/kg, time 6-24 hrs
cells [25] = settings: Homo sapiens, BaF3, 72 h; remark: listed apart in the source
[26] = target: Serine/threonine-protein kinase PLK1 (Homo sapiens, UniProt P53350); assay: Inhibition of human PLK1 using casein as substrate in presence of [gamma33P]-ATP by HotSpot assay
BaF3 [27] = assay: In vivo inhibition of ALK signaling in mouse implanted with mouse BaF3 cells expressing EML4-ALK L1196M mutant assessed as inhibition of ALK phosphorylation at 25 mg/kg, po administered as single dose and measured at 6 to 24 hrs by ELISA; type: functional, organism-based; settings: time 6-24 hrs

## COc1cc(N2CCC(N3CCN(C)CC3)CC2)ccc1Nc1ncc(Cl)c(Nc2ccccc2P(C)(C)=O)n1 [BRIGATINIB]
[1]
  inhibition: < 90%
[2]
  inhibition: < 90%
[3]
  inhibition: < 90%
Insulin receptor
  IC50: 9330 nM
[4]
  inhibition: inactive
[5]
  IC50: > 1000 nM
[6]
  inhibition: < 90%
[7]
  IC50: 358 nM
[8]
  inhibition: < 90%
BaF3 [9]
  Activity: 89%
[10]
  IC50: 123 nM
[11]
  inhibition: < 90%
[12]
  inhibition: < 90%
[13]
  IC90: 762 nM
[14]
  inhibition: < 90%
[15]
  IC50: > 1000 nM
[16]
  IC50: 241 nM
[17]
  inhibition: < 90%
[18]
  inhibition: Active
[19]
  inhibition: < 90%
[20]
  IC50: 492 nM
[21]
  inhibition: < 90%
[22]
  inhibition: < 90%
Cells [23]
  IC50: 17 nM
[24]
  Activity: Non-Toxic
Mus musculus
  Activity: Active
Cells [25]
  IC50: 31 nM
[26]
  IC50: 611 nM
BaF3 [27]
  inhibition: Active
